US20050215772A1, “Furanone derivatives and methods of making same” (priority 2002, published 2005)

Key:
[1] = test system: AI-2 pathway; assay: microbe, parasite or virus in culture; assay type: cell-based, V. harveyi; settings: Vibrio harveyi, read-out: AI-2 (% of control)
[2] = test system: AHL mediated quorum sensing; assay type: cell-based
[3] = test system: Staphylococcus aureus; assay: Growth of Staphylococcus aureus; assay type: cell-based
Protocol: The growth of Staphylococcus aureus against furanones was tested in sidearm flasks. One percent of an overnight culture was added to the growth media, Nutrient Broth, containing furanones at the concentrations 1-50 μg/ml. The bacteria were incubated at 37 C and growth was measured at 610 nm.

[4] = assay type: cell-based, V. vulnificus
[5] = test system: V. vulnificus; assay: Attachment by V. vulnificus; assay type: cell-based

Row | Compound | AHL [2] | S. aureus (% of control) ([3]; growth, 50 ug/ml) | further results
1 | C[C@@]1(Nc2ccccc2)OC(=O)C=C1N | + + + |  | activity at 5 µg/mL [1]: 80%; activity at 10 µg/mL [1]: 57%; activity at 50 µg/mL [1]: 26%
2 | CCCCC1=CC(=C(Br)Br)N(c2ccccc2)C1=O | + + + |  | 
3 | CC1(O)NC(=O)C=C1c1ccccc1 (centres unmarked) |  |  | activity at 25 µg/mL ([3]; Staphylococcus aureus, growth, 25 μg/ml, read-out: S. aureus (% of control)): 102%; activity at 100 µg/mL [1]: 39%
4 | CCCCC1=C(Br)/C(=C/Nc2ccccc2)OC1=O | + + + + | No effect 50 μg/ml | activity at 20 µg/mL [1]: 61%
5 | CC1=CC(C)(Nc2ccccc2)OC1=O (centres unmarked) | + + | No effect 50 μg/ml | activity at 100 µg/mL [1]: 50%
6 | C/C=C1\NC(=O)C=C1C | + + + | No effect 50 μg/ml | 
7 | CCCCCCCC1=CC(=O)N(c2ccccc2)C1(O)CBr (centres unmarked) | + + + |  | 
8 | CCCCC1=CC(=C(Br)Br)N(CCOC(=O)C(F)(F)F)C1=O | + + + | No effect (50 μg/ml) | 
9 | CCCCC1=CC(=C(Br)Br)N(CCOS(=O)(=O)c2ccc(C)cc2)C1=O | + + | No effect (50 μg/ml) | 
10 | CCCC(Br)C1=CC(=C(Br)Br)N(c2ccccc2)C1=O (centres unmarked) [drawing 24] | + + + + |  | S. aureus (% of control) ([3]; growth for 10 hrs, concentration not given): 0% growth at ug/ml for 10 hrs % of control
11 | O=C1C=C(Br)/C(=C/Nc2ccccc2)O1 [drawing 26] | + + + |  | activity at 50 µg/mL ([3]; Staphylococcus aureus, growth, 50 ug/ml, read-out: S. aureus (% of control)): 104%; activity at 50 µg/mL [1]: 2%
12 | O=C1C=C(Br)/C(=C/Nc2ccccc2)O1 [drawing 35] |  |  | reduction in swimming motility [4]: 40-50% reduction in swimming motility in V. cholerae and V. vulnificus; reduction in attachment [5]: 30% reduction in attachment by V. vulnificus
13 | CCCC(Br)C1=CC(=C(Br)Br)N(c2ccccc2)C1=O (centres unmarked) [drawing 37] |  |  | reduction in swimming motility [4]: 40-50% reduction in swimming motility in V. cholerae and V. vulnificus; reduction in attachment [5]: 30% reduction in attachment by V. vulnificus
